Results on 25 compounds are retold here after patent US20120270875A1, “PYRIMIDINE AMIDE COMPOUNDS” (priority 2011, published 2012).

Structures are written as SMILES.

sLFA-1/ICAM-1, sequence (P20701 26-1090 limits assumed, stated change not applied): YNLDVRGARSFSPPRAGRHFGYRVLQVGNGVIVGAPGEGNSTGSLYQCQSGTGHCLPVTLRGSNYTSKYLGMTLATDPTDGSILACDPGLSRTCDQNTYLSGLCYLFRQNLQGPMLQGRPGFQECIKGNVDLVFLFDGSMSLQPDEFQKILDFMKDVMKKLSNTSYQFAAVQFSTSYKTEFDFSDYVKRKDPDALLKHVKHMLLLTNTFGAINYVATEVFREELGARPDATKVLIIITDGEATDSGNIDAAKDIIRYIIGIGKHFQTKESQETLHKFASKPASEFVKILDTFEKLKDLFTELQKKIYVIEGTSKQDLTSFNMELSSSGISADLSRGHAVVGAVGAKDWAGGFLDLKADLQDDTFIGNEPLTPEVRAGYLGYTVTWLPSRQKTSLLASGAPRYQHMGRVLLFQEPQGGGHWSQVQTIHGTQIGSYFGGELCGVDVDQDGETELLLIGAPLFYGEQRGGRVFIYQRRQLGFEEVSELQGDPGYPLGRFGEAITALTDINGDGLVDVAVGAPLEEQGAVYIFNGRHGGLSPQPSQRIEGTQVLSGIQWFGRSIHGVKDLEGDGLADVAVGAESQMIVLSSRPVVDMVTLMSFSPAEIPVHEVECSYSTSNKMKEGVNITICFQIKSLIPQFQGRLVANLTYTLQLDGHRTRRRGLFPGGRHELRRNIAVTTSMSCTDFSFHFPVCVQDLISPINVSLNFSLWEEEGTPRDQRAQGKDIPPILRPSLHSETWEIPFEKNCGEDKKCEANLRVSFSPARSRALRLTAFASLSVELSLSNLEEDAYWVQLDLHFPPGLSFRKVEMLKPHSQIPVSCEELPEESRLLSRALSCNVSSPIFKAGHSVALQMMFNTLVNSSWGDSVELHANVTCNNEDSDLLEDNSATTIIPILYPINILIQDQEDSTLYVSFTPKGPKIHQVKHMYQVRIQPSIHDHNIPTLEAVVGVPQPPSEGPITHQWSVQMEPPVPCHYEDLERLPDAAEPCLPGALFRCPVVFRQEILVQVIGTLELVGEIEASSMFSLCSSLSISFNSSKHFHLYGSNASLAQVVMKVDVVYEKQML
sLFA-1/ICAM-1, sequence (P05107 23-700 limits assumed, stated change not applied): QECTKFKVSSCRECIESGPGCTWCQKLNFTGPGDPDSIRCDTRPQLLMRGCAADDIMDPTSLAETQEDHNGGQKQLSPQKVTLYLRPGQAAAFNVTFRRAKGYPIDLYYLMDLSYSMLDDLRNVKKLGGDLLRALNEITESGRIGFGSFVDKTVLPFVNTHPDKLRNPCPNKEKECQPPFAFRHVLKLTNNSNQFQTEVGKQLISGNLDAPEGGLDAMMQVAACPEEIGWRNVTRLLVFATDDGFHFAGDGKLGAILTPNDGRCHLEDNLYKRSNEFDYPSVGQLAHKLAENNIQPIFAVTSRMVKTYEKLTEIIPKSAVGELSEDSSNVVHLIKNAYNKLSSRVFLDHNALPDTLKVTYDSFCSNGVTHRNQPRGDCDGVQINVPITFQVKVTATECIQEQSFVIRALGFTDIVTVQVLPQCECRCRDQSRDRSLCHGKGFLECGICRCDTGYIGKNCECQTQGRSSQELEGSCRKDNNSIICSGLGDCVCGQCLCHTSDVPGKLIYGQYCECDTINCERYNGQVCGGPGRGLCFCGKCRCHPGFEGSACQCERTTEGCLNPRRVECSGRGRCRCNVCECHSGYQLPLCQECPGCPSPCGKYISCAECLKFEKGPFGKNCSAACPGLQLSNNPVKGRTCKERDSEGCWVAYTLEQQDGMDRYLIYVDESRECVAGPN

The first test addresses sLFA-1/ICAM-1 (Homo sapiens, UniProt P05107+P20701, DEL701-769). Kind of test: sLFA-1/ICAM-1 ELISA. Type of test: binding.
Conditions: not given
The protocol:
sLFA-1/ICAM-1 ELISA and Mac-1/ICAM-1 ELISA
Plates were coated with either 50 μl/well of 2.0 ug/ml solution of sLFA-1 or Mac-1 receptor in divalent cation buffer (1 mM MnCl2, 0.14M NaCl, 20 mM HEPES pH 7.2) at 4° C. overnight. Two hundred fifty μl of blocking buffer (1% BSA in divalent cation buffer) was added to each well 1 hour at 37° C. Plates were washed 3 times with wash buffer (TBS/0.05% Tween-20/1 mM MnCl2). The compound to be tested was solubilized in DMSO. A series of 1:3 dilutions were performed to achieve a concentration range of 0.45 nM-3 uM. Fifty μl of binding buffer (0.5% BSA in divalent cation buffer)/1% DMSO and 50 μl of the solutions to be tested were added to the appropriate wells and incubated for 1 hour. Fifty μl of 5dICAM-Fc (27 ng/ml) was added to the appropriate wells and 50 μl binding buffer was added to non-specific binding wells and incubated for 2 hours and washed. One hundred μl of 1:4000 HRP-goat anti-huIgG was added to each well and incubated for 1 hour and washed. One hundred μl of 1:1 TMB solution was added to each well and developed for 20 min at room temperature. Color development was stopped by adding 100 μl H3PO4 to each well. Absorbance was measured at 450 nm.
Regarding `Cc1nc(NCCCc2cccc(O)c2)nc(C)c1C(=O)N[C@@H](CNC(=O)Nc1ccccc1)C(=O)O` [Example 107, (S)-2-({2-[3-(3-hydroxy-phenyl)-propylamino]-4,6-dimethyl-pyrimidine-5-carbonyl}-amino)-3-(3-phenyl-ureido)-propionic acid], the IC50 was 0.166 µM.

Staying with this test, now noted: sLFA-1 coated plates, 5dICAM-Fc binding, ELISA; read-out: LFA-1/ICAM (IC50).
Regarding `Cc1csc(C(=O)NC[C@H](NC(=O)c2c(C)nc(NCCCc3cccc(O)c3)nc2C)C(=O)O)c1` [Example 89, (S)-2-({2-[3-(3-hydroxy-phenyl)-propylamino]-4,6-dimethyl-pyrimidine-5-carbonyl}-amino)-3-[(4-methyl-thiophene-2-carbonyl)-amino]-propionic acid], the IC50 amounted to 0.078 µM.
On the same count and under the same terms, under `COC(=O)NC[C@H](NC(=O)c1c(C)nc(NCCCc2cccc(O)c2)nc1C)C(=O)O` [Example 109, (S)-2-({2-[3-(3-Hydroxy-phenyl)-propylamino]-4,6-dimethyl-pyrimidine-5-carbonyl}-amino)-3-methoxycarbonylamino-propionic acid] stands 0.198 µM; under `Cc1ccsc1C(=O)NC[C@H](NC(=O)c1c(C)nc(NCCCc2cccc(O)c2)nc1C)C(=O)O` [Example 91, (S)-2-({2-[3-(3-hydroxy-phenyl)-propylamino]-4,6-dimethyl-pyrimidine-5-carbonyl}-amino)-3-[(3-methyl-thiophene-2-carbonyl)-amino]-propionic acid], 0.042 µM.
Still for that read-out and setting: then `Cc1nc(NCCCc2cccc(O)c2)nc(C)c1C(=O)N[C@@H](CNC(=O)CC1CCCCC1)C(=O)O` [Example 44, (S)-2-({2-[3-(3-hydroxy-phenyl)-propylamino]-4,6-dimethyl-pyrimidine-5-carbonyl}-amino)-3-[1-cyclohexyl-acetylamino]-propionic acid], with 0.115 µM; and `Cc1nc(NCCCc2cccc(O)c2)nc(C)c1C(=O)N[C@@H](CNC(=O)C12CC3CC(CC(C3)C1)C2)C(=O)O` [Example 99, (S)-3-[(Adamantane-1-carbonyl)-amino]-2-({2-[3-(3-hydroxy-phenyl)-propylamino]-4,6-dimethyl-pyrimidine-5-carbonyl}-amino)-propionic acid], with 0.287 µM; and `Cc1nc(NCCCc2cccc(O)c2)nc(C)c1C(=O)N[C@@H](CNC(=O)c1nccc2ccccc12)C(=O)O` [Example 45, (S)-2-({2-[3-(3-hydroxy-phenyl)-propylamino]-4,6-dimethyl-pyrimidine-5-carbonyl}-amino)-3-[(isoquinoline-1-carbonyl)-amino]-propionic acid], with 0.087 µM.
On the same count and under the same terms, under `Cc1nc(NCCCc2cccc(O)c2)nc(C)c1C(=O)N[C@@H](CNC(=O)c1csc(-c2ccncc2)n1)C(=O)O` (single isomer, unassigned) [Example 41] stands 0.353 µM; under `Cc1nc(NCCCc2cccc(O)c2)nc(C)c1C(=O)N[C@@H](CNC(=O)c1csc(-c2ccncc2)n1)C(=O)O` [Example 47, (S)-2-({2-[3-(3-hydroxy-phenyl)-propylamino]-4,6-dimethyl-pyrimidine-5-carbonyl}-amino)-3-[(2-pyridin-4-yl-thiazole-4-carbonyl)-amino]-propionic acid], 0.07 µM; under `Cc1nc(NCCCc2cccc(O)n2)nc(C)c1C(=O)N[C@@H](CNC(=O)c1cccs1)C(=O)O` [Example 52, (S)-2-({2-[3-(6-Hydroxy-pyridin-2-yl)-propylamino]-4,6-dimethyl-pyrimidine-5-carbonyl}-amino)-3-[(thiophene-2-carbonyl)-amino]-propionic acid], 1.98 µM.
Turning to `Cc1nc(C)c(C(=O)NC[C@H](NC(=O)c2c(C)nc(NCCCc3cccc(O)c3)nc2C)C(=O)O)s1` [Example 43, (S)-2-({2-[3-(3-hydroxy-phenyl)-propylamino]-4,6-dimethyl-pyrimidine-5-carbonyl}-amino)-3-[(2,4-dimethyl-thiazole-5-carbonyl)-amino]-propionic acid], the IC50 came out at 0.128 µM.
Regarding `Cc1nc(NC2CCc3cc(O)ccc3C2)nc(C)c1C(=O)N[C@@H](CNC(=O)c1cccs1)C(=O)O` (stereo partly drawn) [Example 17, (S) 2-(2-[6-hydroxy-1,2,3,4-tetrahydro-naphthalen-2-ylamino]-4,6-dimethyl-pyrimidine-5-carbonyl-amino)-3-[(thiophene-2-carbonyl)-amino]-propionic acid], the IC50 stood at 0.309 µM.
Same read-out and setting: under `Cc1nc(NCCCc2cccc(O)c2)nc(C)c1C(=O)N[C@@H](CNC(=O)c1sccc1Cl)C(=O)O` [Example 103, (S)-3-[(3-Chloro-thiophene-2-carbonyl)-amino]-2-({2-[3-(3-hydroxy-phenyl)-propylamino]-4,6-dimethyl-pyrimidine-5-carbonyl}-amino)-propionic acid] stands 0.066 µM; under `Cc1nc(NCCCc2cccc(O)c2)nc(C)c1C(=O)N[C@@H](CNC(=O)c1ccccn1)C(=O)O` [Example 42, (S)-2-({2-[3-(3-hydroxy-phenyl)-propylamino]-4,6-dimethyl-pyrimidine-5-carbonyl}-amino)-3-[(pyridine-2-carbonyl)-amino]-propionic acid], 0.085 µM; under `Cc1nc(NCCCc2ccc(F)c(O)c2)nc(C)c1C(=O)N[C@@H](CNC(=O)c1cccs1)C(=O)O` [Example 65, (S)-2-({2-[3-(4-Fluoro-3-hydroxy-phenyl)-propylamino]-4,6-dimethyl-pyrimidine-5-carbonyl}-amino)-3-[(thiophene-2-carbonyl)-amino]-propionic acid], 1.3 µM.
In the case of `Cc1ccc(CCCNc2nc(C)c(C(=O)N[C@@H](CNC(=O)c3cccs3)C(=O)O)c(C)n2)cc1O` [Example 67, (S)-2-({2-[3-(3-Hydroxy-4-methyl-phenyl)-propylamino]-4,6-dimethyl-pyrimidine-5-carbonyl}-amino)-3-[(thiophene-2-carbonyl)-amino]-propionic acid], the IC50 was determined as 0.329 µM.
Take `Cc1nc(NCCCc2cccc(O)c2F)nc(C)c1C(=O)N[C@@H](CNC(=O)c1cccs1)C(=O)O` [Example 70, (S)-2-({2-[3-(2-Fluoro-3-hydroxy-phenyl)-propylamino]-4,6-dimethyl-pyrimidine-5-carbonyl}-amino)-3-[(thiophene-2-carbonyl)-amino]-propionic acid]: the IC50 was not below 3 µM.
The same measure, in the same setting: then `CCc1ccc(C(=O)NC[C@H](NC(=O)c2c(C)nc(NCCCc3cccc(O)c3)nc2C)C(=O)O)s1` [Example 105, (S)-[(5-Ethyl-thiophene-2-carbonyl)-amino]-2-({2-[3-(3-hydroxy-phenyl)-propylamino]-4,6-dimethyl-pyrimidine-5-carbonyl}-amino)-3-propionic acid], with 0.103 µM.
On to `Cc1nc(NCCCc2cccc(O)c2C)nc(C)c1C(=O)N[C@@H](CNC(=O)c1cccs1)C(=O)O` [Example 66, (S)-2-({2-[3-(3-Hydroxy-2-methyl-phenyl)-propylamino]-4,6-dimethyl-pyrimidine-5-carbonyl}-amino)-3-[(thiophene-2-carbonyl)-amino]-propionic acid], for which the IC50 was 0.111 µM.
As to `Cc1nc(NCc2ccccc2-c2cccc(O)c2)nc(C)c1C(=O)N[C@@H](CNC(=O)c1cccs1)C(=O)O` [Example 12, (S)-2-({2-[(3′-hydroxy-biphenyl-2-ylmethyl)-amino]-4,6-dimethyl-pyrimidine-5-carbonyl}-amino)-3-[(thiophene-2-carbonyl)-amino]-propionic acid], the IC50 turned out to be 0.191 µM.
In the case of `Cc1nc(NCCCc2cccc(O)c2)nc(C)c1C(=O)N[C@@H](CNC(=O)c1ccsc1)C(=O)O` [Example 85, (S)-2-({2-[3-(3-hydroxy-phenyl)-propylamino]-4,6-dimethyl-pyrimidine-5-carbonyl}-amino)-3-[(thiophene-3-carbonyl)-amino]-propionic acid], the IC50 stood at 0.012 µM.
The same measure, in the same setting: under `Cc1nc(NC2CCc3cccc(O)c3C2)nc(C)c1C(=O)N[C@@H](CNC(=O)c1cccs1)C(=O)O` (stereo partly drawn) [Example 18, (S) 2-(2-[8-hydroxy-1,2,3,4-tetrahydro-naphthalen-2-ylamino]-4,6-dimethyl-pyrimidine-5-carbonyl-amino)-3-[(thiophene-2-carbonyl)-amino]-propionic acid] stands 0.048 µM.
On to `CCc1nc(NCCCc2cccc(O)c2)nc(CC)c1C(=O)N[C@@H](CNC(=O)c1cccs1)C(=O)O` [Example 79, (S)-2-({4,6-Diethyl-2-[3-(3-hydroxy-phenyl)-propylamino]-pyrimidine-5-carbonyl}-amino)-3-[(thiophene-2-carbonyl)-amino]-propionic acid], for which the IC50 is 0.09 µM.
Still for that read-out and setting: then `Cc1nc(NCCCc2cccc(O)c2)nc(C)c1C(=O)N[C@@H](CNC(=O)c1ccc(Cl)s1)C(=O)O` [Example 95, (S)-3-[(5-Chloro-thiophene-2-carbonyl)-amino]-2-({2-[3-(3-hydroxy-phenyl)-propylamino]-4,6-dimethyl-pyrimidine-5-carbonyl}-amino)-propionic acid], with 0.265 µM.
Same read-out and setting: then `Cc1nc(NCCCc2cc(O)ccc2Cl)nc(C)c1C(=O)N[C@@H](CNC(=O)c1cccs1)C(=O)O` [Example 68, (S)-2-({2-[3-(2-Chloro-5-hydroxy-phenyl)-propylamino]-4,6-dimethyl-pyrimidine-5-carbonyl}-amino)-3-[(thiophene-2-carbonyl)-amino]-propionic acid], with 0.291 µM.
